In US6706740B2, “Fungicidal heterocyclic aromatic amides and their compositions, methods of use and preparation” (Dow AgroSciences LLC, priority 1999, dated 2004):
Read-outs that look alike come from different tables or passages of the source.

Tests used:
[1] = test system: Phytophthora infestans—PHYTIN; experiment: whole plant or invertebrate; type: in vivo; settings: Phytophthora, in Solanum lycopersicum, 24 h, read-out: PHYTIN in vivo 1 Day Protectant
[2] = test system: Rhizoctonia solani (RHIZSO); experiment: microbe, parasite or virus in culture; type: cell-based; settings: Rhizoctonia solani, read-out: RHIZSO in vitro Growth Inhibition
[3] = test system: Leptosphaeria nodorum—LEPTNO; experiment: Glume Blotch of Wheat, in vivo whole plant, 24 Hour Protectant; settings: Leptosphaeria, control of fungal infection vs untreated plants, read-out: LEPTNO in vivo 1 Day Protectant
[4] = test system: Magnaporthe grisea (Pyricularia oryzae—PYRIOR); experiment: microbe, parasite or virus in culture; type: cell-based; settings: Pyricularia oryzae, read-out: PYRIOR in vitro Growth Inhibition
[5] = test system: Mycosphaerella graminicola (Septoria tritici—SEPTTR); experiment: In vitro fungal growth inhibition, Mycosphaerella graminicola (SEPTTR); type: cell-based; settings: Zymoseptoria tritici, read-out: SEPTTR in vitro Growth Inhibition
Ustilago maydis (USTIMA) = experiment: microbe, parasite or virus in culture; type: cell-based; settings: Mycosarcoma maydis, read-out: USTIMA in vitro Growth Inhibition
Erysiphe graminis—ERYSGT = experiment: Powdery Mildew of Wheat, in vivo whole plant, 24 Hour Protectant; settings: Erysiphe, control of fungal infection vs untreated plants, read-out: ERYSGT in vivo 1 Day Protectant
[6] = test system: Phytophthora infestans (PHYTIN); experiment: microbe, parasite or virus in culture; type: cell-based; settings: Phytophthora infestans, read-out: PHYTIN in vitro Growth Inhibition
[7] = test system: Stagonospora nodorum (Leptosphaeria nodorum—LEPTNO); experiment: In vitro fungal growth inhibition, Stagonospora nodorum (LEPTNO); type: cell-based; settings: Leptosphaeria, read-out: LEPTNO in vitro Growth Inhibition
[8] = test system: Puccinia recondita—PUCCRT; experiment: Brown Rust of Wheat, in vivo whole plant, 24 Hour Protectant; settings: Puccinia, control of fungal infection vs untreated plants, read-out: PUCCRT in vivo 1 Day Protectant
Septoria tritici—SEPTTR = experiment: Leaf Blotch of Wheat, in vivo whole plant, 24 Hour Protectant; settings: Zymoseptoria tritici, 24 h, control of fungal infection vs untreated plants, read-out: SEPTTR in vivo 1 Day Protectant
[9] = 100 ppm spray, wheat, 24 hour protectant
[10] = wheat plants sprayed at 100 ppm, inoculated after 24 hours

SMILES | pest or weed control at 100 ppm [1] [%] | inhibition at 25 ppm [2] [%] | pest or weed control at 100 ppm [3, 9] [%] | inhibition at 25 ppm [4] [%] | inhibition at 25 ppm ([5]; 25 ppm in growth medium) [%] | inhibition at 25 ppm (Ustilago maydis (USTIMA)) [%] | pest or weed control at 100 ppm (Erysiphe graminis—ERYSGT; [9]) [%] | inhibition at 25 ppm [6] [%] | inhibition at 25 ppm ([7]; 25 ppm in growth medium) [%] | pest or weed control at 100 ppm [8, 9] [%] | pest or weed control at 100 ppm (Septoria tritici—SEPTTR; [9]) [%] | pest or weed control at 100 ppm [3, 10] [%] | inhibition at 25 ppm ([5]; 25 ppm in the growth medium) [%] | pest or weed control at 100 ppm (Erysiphe graminis—ERYSGT; [10]) [%] | inhibition at 25 ppm ([7]; 25 ppm in the growth medium) [%] | pest or weed control at 100 ppm [8, 10] [%] | pest or weed control at 100 ppm (Septoria tritici—SEPTTR; [10]) [%]
COc1ccnc(C(=O)Nc2cc(C)c(OC(=O)c3ccc(C(F)(F)F)cc3)c(C)c2)c1O [Compound 457] | < 25 | < 80 | < 25 | < 80 | < 80 | < 80 | < 25 | < 80 | > 80 | < 25 | 25 to 74 |  |  |  |  |  | 
COc1ccnc(C(=O)Nc2ccc(Oc3cc(Oc4ccccc4)ncn3)cc2)c1O [Compound 468] | < 25 | < 80 |  | < 80 |  | < 80 |  | < 80 |  |  |  | < 25 | < 80 | < 25 | < 80 | < 25 | 25 to 74
COc1ccnc(C(=O)Nc2ccc(Oc3ccc(C(F)(F)F)cc3)nc2)c1O [Compound 472] | < 25 | < 80 |  | > 80 |  | < 80 |  | < 80 |  |  |  | 25 to 74 | < 80 | < 25 | < 80 | 25 to 74 | 25 to 74
CSc1ccnc(C(=O)NC2CC(C)(C)CC(C)(C)C2)c1O [Compound 477] | < 25 | < 80 |  | < 80 |  | < 80 |  | < 80 |  |  |  | 25 to 74 | < 80 | < 25 | < 80 | < 25 | 25 to 74
CC1(C)CC(NC(=O)c2nccc(Cl)c2O)CC(C)(C)C1 [Compound 480] | < 25 | < 80 |  | > 80 |  | < 80 |  | < 80 |  |  |  | 25 to 74 | < 80 | < 25 | < 80 | < 25 | < 25
COc1ccc(O)c(C(=O)NC2COC(=O)[C@H](Cc3ccccc3)[C@@H](OC(=O)C(C)C)[C@H](C)OC2=O)n1 (stereo partly shown) [Compound 481] | < 25 | < 80 |  | < 80 |  | < 80 |  | < 80 |  |  |  | 25 to 74 | < 80 | < 25 | < 80 | < 25 | 25 to 74
COc1ccc(CNC(=O)c2nc(Br)ccc2O)cc1 [Compound 482] | < 25 | < 80 |  | < 80 |  | < 80 |  | < 80 |  |  |  | 25 to 74 | < 80 | < 25 | < 80 | < 25 | 25 to 74
O=C(NCc1sccc1Cl)c1nc(Br)ccc1O [Compound 484] | < 25 | < 80 |  | < 80 |  | < 80 |  | < 80 |  |  |  | < 25 | < 80 | < 25 | < 80 | < 25 | < 25
CC(NC(=O)c1nc(Br)ccc1O)c1ccc(C(F)(F)F)cc1 (stereo not shown) [Compound 488] | < 25 | < 80 |  | > 80 |  | < 80 |  | < 80 |  |  |  | < 25 | < 80 | < 25 | < 80 | 25 to 74 | 25 to 74
CCCCCc1ccc(C(C)NC(=O)c2nc(Br)ccc2O)cc1 (stereo not shown) [Compound 489] | < 25 | < 80 |  | < 80 |  | < 80 |  | < 80 |  |  |  | < 25 | < 80 | < 25 | < 80 | 25 to 74 | < 25
CC(NC(=O)c1nc(Br)ccc1O)c1ccc(Oc2ccccc2)cc1 (stereo not shown) [Compound 490] | < 25 | < 80 |  | < 80 |  | < 80 |  | < 80 |  |  |  | < 25 | < 80 | < 25 | < 80 | 25 to 74 | 25 to 74
O=C(NC(Cc1ccccc1)c1ccccc1)c1nc(Br)ccc1O (stereo not shown) [Compound 491] | < 25 | < 80 |  | < 80 |  | < 80 |  | > 80 |  |  |  | < 25 | < 80 | < 25 | < 80 | < 25 | < 25
O=C(Nc1ccccc1Oc1cccc(C(F)(F)F)c1)c1nc(Br)ccc1O [Compound 492] | < 25 | < 80 |  | < 80 |  | < 80 |  | < 80 |  |  |  | < 25 | < 80 | < 25 | < 80 | < 25 | 25 to 74
O=C(Nc1ccccc1Oc1ccc(C(F)(F)F)cc1)c1nc(Br)ccc1O [Compound 493] | < 25 | < 80 |  | < 80 |  | < 80 |  | < 80 |  |  |  | < 25 | < 80 | < 25 | < 80 | < 25 | 25 to 74
O=C(Nc1cccc(Oc2ccccc2C(F)(F)F)c1)c1nc(Br)ccc1O [Compound 494] | < 25 | < 80 |  | < 80 |  | < 80 |  | < 80 |  |  |  | < 25 | < 80 | < 25 | < 80 | < 25 | 25 to 74
O=C(Nc1cccc(Oc2cccc(C(F)(F)F)c2)c1)c1nc(Br)ccc1O [Compound 495] | < 25 | < 80 |  | < 80 |  | < 80 |  | < 80 |  |  |  | < 25 | < 80 | 25 to 74 | < 80 | 25 to 74 | 25 to 74
O=C(Nc1cccc(Oc2ccc(C(F)(F)F)cc2)c1)c1nc(Br)ccc1O [Compound 496] | < 25 | < 80 |  | < 80 |  | < 80 |  | < 80 |  |  |  | < 25 | < 80 | < 25 | < 80 | 25 to 74 | 25 to 74
